Among the data in patent publication US20120213758A1, “BIARYL PDE4 INHIBITORS FOR TREATING PULMONARY AND CARDIOVASCULAR DISORDERS” (DeCODE Genetics enf, priority 2007, published 2012) are IC50 values, retold here.

Assay [1] addresses hPDE4D (Homo sapiens, UniProt Q08499). Description: In-vitro real-time enzyme-coupled spectrophotometric assay for PDE4 enzymes (hPDE4D).
The target of assay [2] is hPDE4B (Homo sapiens, UniProt Q07343). The assay can be described thus: In-vitro real-time enzyme-coupled spectrophotometric assay for PDE4 enzymes (hPDE4B).
hPDE4B, sequence (Q07343 whole entry): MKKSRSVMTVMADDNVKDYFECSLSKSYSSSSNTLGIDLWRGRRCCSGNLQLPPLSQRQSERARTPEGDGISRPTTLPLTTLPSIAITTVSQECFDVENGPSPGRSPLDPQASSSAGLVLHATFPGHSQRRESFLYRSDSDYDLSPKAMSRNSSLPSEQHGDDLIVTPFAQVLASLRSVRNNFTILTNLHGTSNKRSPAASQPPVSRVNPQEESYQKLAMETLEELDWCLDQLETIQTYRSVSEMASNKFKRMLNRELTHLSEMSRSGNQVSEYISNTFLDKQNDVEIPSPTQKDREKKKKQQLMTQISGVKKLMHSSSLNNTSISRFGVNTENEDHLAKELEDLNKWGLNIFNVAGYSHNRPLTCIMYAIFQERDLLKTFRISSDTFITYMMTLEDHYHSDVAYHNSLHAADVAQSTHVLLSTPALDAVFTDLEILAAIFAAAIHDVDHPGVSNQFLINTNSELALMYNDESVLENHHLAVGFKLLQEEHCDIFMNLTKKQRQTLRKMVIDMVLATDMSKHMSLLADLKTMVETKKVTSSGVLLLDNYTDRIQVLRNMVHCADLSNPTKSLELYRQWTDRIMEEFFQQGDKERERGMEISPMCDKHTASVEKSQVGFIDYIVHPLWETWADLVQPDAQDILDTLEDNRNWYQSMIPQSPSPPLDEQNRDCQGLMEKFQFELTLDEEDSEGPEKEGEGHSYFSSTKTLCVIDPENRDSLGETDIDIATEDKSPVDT

Counter-ions that a name gives are not always drawn. Like-named read-outs stand apart in the source and are kept apart here.

hPDE4D, sequence (Q08499 whole entry): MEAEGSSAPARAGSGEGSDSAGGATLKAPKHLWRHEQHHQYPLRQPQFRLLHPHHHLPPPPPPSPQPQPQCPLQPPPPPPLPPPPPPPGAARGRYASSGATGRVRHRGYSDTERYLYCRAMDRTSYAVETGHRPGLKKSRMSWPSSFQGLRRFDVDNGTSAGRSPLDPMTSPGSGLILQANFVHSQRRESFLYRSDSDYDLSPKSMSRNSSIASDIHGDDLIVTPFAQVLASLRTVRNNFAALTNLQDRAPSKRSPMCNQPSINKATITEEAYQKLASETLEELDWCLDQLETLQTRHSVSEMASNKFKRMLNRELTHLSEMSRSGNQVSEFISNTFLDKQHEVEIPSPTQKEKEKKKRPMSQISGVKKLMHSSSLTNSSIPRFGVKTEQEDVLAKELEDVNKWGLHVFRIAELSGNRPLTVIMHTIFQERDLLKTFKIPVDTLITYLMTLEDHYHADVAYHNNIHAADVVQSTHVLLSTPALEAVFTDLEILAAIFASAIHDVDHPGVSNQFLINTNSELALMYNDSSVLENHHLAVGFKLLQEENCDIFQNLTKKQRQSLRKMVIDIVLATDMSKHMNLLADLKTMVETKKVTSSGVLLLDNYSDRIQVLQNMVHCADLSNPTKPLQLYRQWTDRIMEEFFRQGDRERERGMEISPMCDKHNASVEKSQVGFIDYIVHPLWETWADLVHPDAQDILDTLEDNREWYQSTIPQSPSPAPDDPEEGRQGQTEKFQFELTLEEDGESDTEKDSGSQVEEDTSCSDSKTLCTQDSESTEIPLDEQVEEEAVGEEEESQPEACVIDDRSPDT

On to `NC(=O)Nc1ccc(Cc2ccc(OS(=O)(=O)O)c(-c3cccc(Cl)c3)c2)cc1` [Example A-062, Sodium sulfate of [4-(3′-Chloro-6-hydroxy-biphenyl-3-ylmethyl)-phenyl]-urea], for which the IC50 in assay [1] (read-out: hPDE4D activity, enzyme-coupled NADH assay, absorbance at 340 nm) is less than 5 µM.
Consider `COc1ccc(Cc2c(C)nn(CC(=O)O)c2C)cc1-c1cccc([N+](=O)[O-])c1` [Example A-006, [4-(6-Methoxy-3′-nitro-biphenyl-3-ylmethyl)-3,5-dimethyl-pyrazol-1-yl]-acetic acid], for which the IC50 in assay [2] was 5 to 20 µM; in assay [1], less than 5 µM.
`C[C@H](C(=O)O)N(C)c1ccc(Cc2ccc(OC(F)F)c(-c3cccc(Cl)c3)c2)cn1` [Example A-079, (R)-2-{[5-(3′-Chloro-6-difluoromethoxy-biphenyl-3-ylmethyl)-pyridin-2-yl]-methyl-amino}-propionic acid] displayed an IC50 in assay [1] of less than 5 µM.
Still for that read-out and setting: with `CCOC(=O)CCNC(=O)Nc1ccc(Cc2ccc(OC)c(-c3cccc(Cl)c3)c2F)cn1` [Example A-029] the figure was less than 5 µM.
Regarding `CCNC(=O)NCc1ccc(Cc2ccc(OC)c(-c3cccc(Cl)c3)c2F)c[n+]1[O-]` [Example B-082, 1-[5-(3′-Chloro-2-fluoro-6-methoxy-biphenyl-3-ylmethyl)-1-oxy-pyridin-2-ylmethyl]-3-ethyl-urea], the IC50 in assay [2] and in assay [1] was less than 5 µM each time.
For `CCOC(=O)CNC(=O)Nc1nnc(Cc2ccc(OC)c(-c3cccc(Cl)c3)c2F)s1` [Example A-024, {3-[5-(3′-Chloro-2-fluoro-6-methoxy-biphenyl-3-ylmethyl)-[1,3,4]thiadiazol-2-yl]-ureido}-acetic acid ethyl ester], the IC50 in assay [1] is less than 5 µM.
`COc1ccc(Cc2cnc(N3CCCC3C(=O)O)nc2)c(F)c1-c1cccc(Cl)c1` (stereo not shown) [Example A-040, 1-[5-(3′-Chloro-2-fluoro-6-methoxy-biphenyl-3-ylmethyl)-pyrimidin-2-yl]-pyrrolidine-2-carboxylic acid]: the IC50 in assay [2] and in assay [1] was less than 5 µM each time.
Compound `COc1ccc(Cc2ccc(C(=O)O)nc2)cc1-c1cccc(Cl)c1` [Example A-071, 5-(3′-Chloro-6-methoxy-biphenyl-3-ylmethyl)-pyridine-2-carboxylic acid] returned an IC50 in assay [1] of less than 5 µM.
For `COc1ccc(Cc2ccc(C(=O)N3CCC(C(=O)O)C3)nc2)c(F)c1-c1cccc(Cl)c1` (stereo not shown) [Example A-038, 1-[5-(3′-Chloro-2-fluoro-6-methoxy-biphenyl-3-ylmethyl)-pyridine-2-carbonyl]-pyrrolidine-3-carboxylic acid], the IC50 in assay [2] and in assay [1] was less than 5 µM in each case.
For `COc1ccc(Cc2nnc(NC(=O)NCCC(=O)O)s2)c(F)c1-c1cccc(Cl)c1` [Example A-027, 3-{3-[5-(3′-Chloro-2-fluoro-6-methoxy-biphenyl-3-ylmethyl)-[1,3,4]thiadiazol-2-yl]-ureido}-propionic acid], the results for the IC50 in assay [2] and in assay [1] were 20 to 40 µM and less than 5 µM, respectively.
For `COc1ccc(Cc2ccc(N(CC(=O)O)C(N)=O)nc2)c(F)c1-c1cccc(Cl)c1` [Example A-057, {1-[5-(3′-chloro-2-fluoro-6-methoxy-biphenyl-3-ylmethyl)-pyridin-2-yl]-ureido}-acetic acid], in that order: less than 5 µM and less than 5 µM.
The corresponding values for `COc1ccc(Cc2nnn[nH]2)c(F)c1-c1cccc(Cl)c1` [Example A-058, 5-(3′-Chloro-2-fluoro-6-methoxy-biphenyl-3-ylmethyl)-1H-tetrazole] are 20 to 40 µM and 5 to 20 µM.
The corresponding values for `COC(=O)c1ccc(Cc2ccc(OC)c(-c3cccc(Cl)c3)c2)cn1` [Example A-073, 5-(3′-chloro-6-methoxy-biphenyl-3-ylmethyl)-pyridine-2-carboxylic methyl ester] are less than 5 µM and less than 5 µM.
As to `COc1ccc(Cc2ccc(C(=O)NS(C)(=O)=O)nc2)c(F)c1-c1cccc(Cl)c1` [Example A-050, N-[5-(3′-Chloro-2-fluoro-6-methoxy-biphenyl-3-ylmethyl)-pyridine-2-carbonyl]-methanesulfonamide], the IC50 in assay [2] and in assay [1] was less than 5 µM in each case.
Regarding `COc1ccc(Cc2ccc(CN3CCNC3=O)[n+]([O-])c2)c(F)c1-c1cccc(Cl)c1` [Example B-083, 1-[5-(3′-Chloro-2-fluoro-6-methoxy-biphenyl-3-ylmethyl)-1-oxy-pyridin-2-ylmethyl]-imidazolidin-2-one], the IC50 in assay [2] and in assay [1] was less than 5 µM each time.
Consider `COc1ccc(Cc2ccc(N3CCC3C(=O)O)nc2)cc1-c1cccc(Cl)c1` (stereo not shown) [Example A-067, 1-[5-(3′-chloro-6-methoxy-biphenyl-3-ylmethyl)-pyridin-2-yl]-azetidine-2-carboxylic acid acetate salt], for which the IC50 in assay [2] is 5 to 20 µM; in assay [1], less than 5 µM.
Consider `COc1ccc(Cc2nnc(NC(=O)NCCCC(=O)O)s2)c(F)c1-c1cccc(Cl)c1` [Example A-031, 4-{3-[5-(3′-Chloro-2-fluoro-6-methoxy-biphenyl-3-ylmethyl)-[1,3,4]thiadiazol-2-yl]-ureido}-butyric acid], for which the IC50 in assay [2] was 5 to 20 µM; in assay [1], less than 5 µM.
For `COc1ccc(Cc2ccc(NS(N)(=O)=O)cc2)c(F)c1-c1cccc(C(C)=O)c1` [Example A-016], in that order: less than 5 µM and less than 5 µM.
Compound `COc1ccc(Cc2ccc(NC(=O)NCCC(=O)O)cc2)c(F)c1-c1cccc(Br)c1` [Example A-023, 3-{3-[4-(3′-Bromo-2-fluoro-6-methoxy-biphenyl-3-ylmethyl)-phenyl]-ureido}-propionic acid] displayed an IC50 in assay [1] of less than 5 µM.
On the same count and under the same terms, next, `CCOC(=O)C1CCN(C(=O)c2ccc(Cc3ccc(OC)c(-c4cccc(Cl)c4)c3F)cn2)CC1` [Example A-033, 1-[5-(3′-Chloro-2-fluoro-6-methoxy-biphenyl-3-ylmethyl)-pyridine-2-carbonyl]-piperidine-4-carboxylic acid ethyl ester]: less than 5 µM; `CCOC(=O)c1cn2cc(Cc3ccc(OC)c(-c4cccc(Cl)c4)c3F)ccc2n1` [Example A-039, 6-(3′-Chloro-2-fluoro-6-methoxy-biphenyl-3-ylmethyl)-imidazo[1,2-a]pyridine-2-carboxylic acid ethyl ester]: less than 5 µM.
In the case of `COc1ccc(Cc2ccc(N(C)CC(=O)O)nc2)cc1-c1cccc(Cl)c1` [Example A-077, {[5-(3′-chloro-6-methoxy-biphenyl-3-ylmethyl)-pyridin-2-yl]-methyl-amino}-acetic acid], in assay [1], the IC50 is less than 5 µM.
As for `COC(=O)[C@H]1C[C@H](O)CN1Cc1ccc(OC)c(-c2cccc([N+](=O)[O-])c2)c1` [Example A-005, (2R,4S)-4-Hydroxy-1-(6-methoxy-3′-nitro-biphenyl-3-ylmethyl)-pyrrolidine-2-carboxylic acid methyl ester], the IC50 in assay [1] lay within 20 to 40 µM.
Still for that read-out and setting: next, `COc1ccc(CN2C(=O)c3ccccc3S2(=O)=O)cc1-c1cccc([N+](=O)[O-])c1` [Example A-002, 2-(6-Methoxy-3′-nitro-biphenyl-3-ylmethyl)-1,1-dioxo-1,2-dihydro-1lambda*6*-benzo[d]isothiazol-3-one]: 5 to 20 µM; `COC(=O)C1CCN(c2ncc(Cc3ccc(OC)c(-c4cccc(Cl)c4)c3F)cn2)C1` (stereo not shown) [Example A-045, 1-[5-(3′-Chloro-2-fluoro-6-methoxy-biphenyl-3-ylmethyl)-pyrimidin-2-yl]-pyrrolidine-3-carboxylic acid methyl ester]: less than 5 µM; `COc1ccc(Cc2ccc(F)cc2)cc1-c1ccc[n+]([O-])c1` [Example B-084, 3-[5-(4-Fluoro-benzyl)-2methoxy-phenyl]-pyridine 1-oxide]: 5 to 20 µM.
Regarding `COc1ccc(Cc2ccc(NC(=O)NCC(=O)O)cc2)c(F)c1-c1cccc(Br)c1` [Example A-022, {3-[4-(3′-Bromo-2-fluoro-6-methoxy-biphenyl-3-ylmethyl)-phenyl]-ureido}-acetic acid], the IC50 in assay [1] is less than 5 µM.
In assay [1], `CN(CC(=O)O)c1ccc(Cc2ccc(OC(F)F)c(-c3cccc(Cl)c3)c2)cn1` [Example A-078, {[5-(3′-Chloro-6-difluoromethoxy-biphenyl-3-ylmethyl)-pyridin-2-yl]-methyl-amino}-acetic acid] returned an IC50 of less than 5 µM.
The same measure, in the same setting: with `COC(=O)[C@@H]1CCCN1c1ccc(Cc2ccc(OC)c(-c3cccc(Cl)c3)c2F)cn1` [Example A-069, (S)-1-[5-(3′-chloro-2-fluoro-6-methoxy-biphenyl-3-ylmethyl)-pyridin-2-yl]-pyrrolidine-2-carboxylic acid methyl ester] the figure was less than 5 µM; with `COc1ccc(Cc2nnc(NC(=O)NCC(=O)O)s2)c(F)c1-c1cccc(Cl)c1` [Example A-026, {3-[5-(3′-Chloro-2-fluoro-6-methoxy-biphenyl-3-ylmethyl)-[1,3,4]thiadiazol-2-yl]-ureido}-acetic acid], less than 5 µM; with `CCOC(=O)CCNC(=O)Nc1nnc(Cc2ccc(OC)c(-c3cccc(Cl)c3)c2F)s1` [Example A-025, 3-{3-[5-(3′-Chloro-2-fluoro-6-methoxy-biphenyl-3-ylmethyl)-[1,3,4]thiadiazol-2-yl]-ureido}-propionic acid ethyl ester], less than 5 µM.
Still for that read-out and setting: next, `CCNC(=O)N(CC(=O)O)c1ccc(Cc2ccc(OC)c(-c3cccc(Cl)c3)c2F)cn1` [Example A-056, {1-[5-(3′-chloro-2-fluoro-6-methoxy-biphenyl-3-ylmethyl)-pyridin-2-yl]-3-ethyl-ureido}-acetic acid]: less than 5 µM.
Turning to `COc1ccc(Cc2ccc(N3CCC3C(=O)O)nc2)c(F)c1-c1cccc(Cl)c1` (stereo not shown) [Example A-055, 1-[5-(3′-chloro-2-fluoro-6-methoxy-biphenyl-3-ylmethyl)-pyridin-2-yl]-azetidine-2-carboxylic acid], the IC50 in assay [2] (read-out: hPDE4B activity, enzyme-coupled NADH assay, absorbance at 340 nm) is less than 5 µM.
